# Measurements reported in publication PMC7144377, “In Vitro and In Vivo Characterization of Dibenzothiophene Derivatives [^125I]Iodo-ASEM and [^18F]ASEM as Radiotracers of Homo- and Heteromeric α7 Nicotinic Acetylcholine Receptors” (Molecules, 2020).
# Columns and labels:
# [1] = biological target: T1, α7 nicotinic acetylcholine receptor (α7 nAChR) (Sus scrofa, UniProt F1SNR6); assay: displacement of […]Iodo-ASEM at […] by autoradiography; conditions: read-out: [^125I]Iodo-ASEM Binding in the Pig Cortex, Layers 1-3 (%, mean ± S.E.M.)
# T1 construct: gene CHRNA7; native receptor in pig cortex sections
# T1 sequence (F1SNR6 20-499): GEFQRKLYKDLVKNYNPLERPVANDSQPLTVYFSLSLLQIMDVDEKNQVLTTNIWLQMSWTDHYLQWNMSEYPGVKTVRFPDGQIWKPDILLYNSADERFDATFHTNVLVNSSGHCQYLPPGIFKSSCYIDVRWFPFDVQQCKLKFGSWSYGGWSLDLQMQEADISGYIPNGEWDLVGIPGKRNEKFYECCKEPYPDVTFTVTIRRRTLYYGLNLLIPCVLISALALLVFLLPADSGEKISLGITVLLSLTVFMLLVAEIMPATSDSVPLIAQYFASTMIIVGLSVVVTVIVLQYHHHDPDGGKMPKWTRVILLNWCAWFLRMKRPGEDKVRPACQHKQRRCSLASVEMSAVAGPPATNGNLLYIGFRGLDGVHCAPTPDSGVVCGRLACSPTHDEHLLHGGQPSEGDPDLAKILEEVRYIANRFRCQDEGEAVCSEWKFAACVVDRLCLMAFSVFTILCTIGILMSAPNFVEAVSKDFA
# [2] = biological target: T1, α7 nicotinic acetylcholine receptor (α7 nAChR); assay: displacement of […]Iodo-ASEM at […] by autoradiography; also blocks […]ASEM PET in vivo; conditions: read-out: [^125I]Iodo-ASEM Binding in the Pig Cortex, Layers 1-3 (%, mean ± S.E.M.)
activity at 10 µM [2] [%],SMILES,activity at 10 µM [1] [%]
–,CN1C[C@@H]2CN(c3ccc(-c4ccccc4)nn3)C[C@@H]2C1 [A-582941],3.22 ± 0.28
2.92 ± 0.35,"O=C(Oc1ccc(Br)cc1)N1CCN2CCC1CC2 [SSR-180,711]",–
–,O=C(N[C@@H]1C2CCN(CC2)[C@H]1Cc1cccnc1)c1cc2ccccc2o1 [TC-5619],7.88 ± 1.65
–,CCN1C[C@]2(COC(=O)c3ccccc3N3C(=O)C[C@H](C)C3=O)CC[C@H](OC)[C@@]34[C@@H]5C[C@H]6[C@H](OC)[C@@H]5[C@](O)(C[C@@H]6OC)[C@@](O)([C@@H](OC)[C@H]23)[C@@H]14 [methyllycaconitine],20.5 ± 2.18
